Assay results reported in US20130150325A1, “3-(Fluorovinyl)pyrazoles and their use” (BAYER INTELLECTUAL PROPERTY GMBH, priority 2011, published 2013).

System: HCT 116 cells transfected with a luciferase reporter under the control of an HIF-responsive sequence
Assay: HIF-luciferase assay
Format: cell-based
Settings: Homo sapiens; HCT 116 HIF-luciferase reporter cells, hypoxia chamber (1% O2), 24 h; in some cases means of up to four individual determinations
Outline: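 Stably transfected HCT 116 cells, plated overnight under normoxia, were exposed to test substances (0-10 μmol/l) for 24 h at 1% O2. Luminescence was read 5 min after adding luciferase reagent, with normoxic cells as background controls. IC50 derived from the hypoxia-driven signal.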

SMILES	IC50 [nM]
Cc1cc(/C(F)=C/c2ccc(C(C)(C)C(F)(F)F)cc2)nn1Cc1cccc(N2CCC(C#N)CC2)c1 [Example 10, 1-{3-[(3-{(Z)-1-Fluoro-2-[4-(1,1,1-trifluoro-2-methylpropan-2-yl)phenyl]vinyl}-5-methyl-1H-pyrazol-1-yl)methyl]phenyl}piperidine-4-carbonitrite]	0.4
Cc1cc(/C(F)=C/c2ccc(C3(C(F)(F)F)CC3)cc2)nn1Cc1cccc(C2(CO)CC2)c1 [Example 59, {1-[3-({3-[(Z)-1-Fluoro-2-{4-[1-(trifluoromethyl)cyclopropyl]phenyl}vinyl]-5-methyl-1H-pyrazol-1-yl}methyl)phenyl]cyclopropyl}methanol]	2
Cc1cc(/C(F)=C/c2ccc(C3(C(F)(F)F)CC3)cc2)nn1Cc1cccc(C(F)(F)CO)c1 [Example 63, 2,2-Difluoro-2-[3-({3-[(Z)-1-fluoro-2-{4-[1-(trifluoromethyl)cyclopropyl]phenyl}vinyl]-5-methyl-1H-pyrazol-1-yl}methyl)phenyl]ethanol]	3
Cc1cc(/C(F)=C/c2ccc(C(C)(C)C(F)(F)F)cc2)nn1Cc1cccc(C(F)(F)CO)c1 [Example 62, 2,2-Difluoro-2-{3-[(3-{(Z)-1-fluoro-2-[4-(1,1,1-trifluoro-2-methylpropan-2-yl)phenyl]vinyl}-5-methyl-1H-pyrazol-1-yl)methyl]phenyl}ethanol]	2.5
Cc1cc(/C(F)=C/c2ccc(C(C)(C)C(F)(F)F)cc2)nn1Cc1cccc(C(=O)N2CCN(C3CC3)CC2)c1 [Example 39, (4-Cyclopropylpiperazin-1-yl) {3-[(3-{(Z)-1-fluoro-2-[4-(1,1,1-trifluoro-2-methylpropan-2-yl)-phenyl]vinyl}-5-methyl-1H-pyrazol-1-yl)methyl]phenyl}methanone]	2
